Values of other authors as cited in patent publication US20230172203A1, “PLANT METABOLISM PROMOTING COMPOSITIONS AND METHODS OF USE” (Panoptic Ag Solutions LLC, priority 2021, published 2023).

System: tea plants
Details: exogenous application; background statement; cited from earlier work

## CNC(=O)CC[C@H](N)C(=O)O [γ-glutamylmethylamide]
  quality and yield of tea plants (in words): can improve the quality and yield of tea plants by increasing the number of usable leaves
